Source: US20050227249A1, “Polymorphisms in the human MDR-1 gene and their use in diagnostic and therapeutic applications” (priority 1999, published 2005)
“And” between values parts separate entries of the source, which are not always exact repeats. Equal values may be shown once. Values belong to the compound of their own block, whether it stands above or below them.

Key:
MDR-1 [1] = test: MDR-1 (PGP) protein levels in probands upon induction by rifampicine, immunohistochemical detection; assay type: in vivo, human; details: for PGP concentration, mean / PGP concentration: rifampicine-induced probands; for PGP concentration: individual probands
Description: The expression levels of MDR-1 in the colon and liver of these patients was also estimated by established immunohistochemical detection of the MDR-1 protein. In the proband population, in addition to measurements of the expression levels of MDR-1 in the colon, measurements of MDR-1 upon induction of the gene by rifampicine were performed. Also, the in vivo activity of MDR-1 under noninduced and rifampicine induced conditions was determined by measuring the blood concentrations of orally administered digoxin (1 mg), which is a known MDR-1 substrate and whose blood concentration also depends on the MDR-1 activity in the colon.

[2] = Phenytoin blood levels in patients by 2C9/2C19 and MDR-1 exon 26 (C3435T) genotype; assay type: in vivo, human
[3] = digoxin maximum plasma concentration (Cmax) at steady state after oral application, by MDR-1 exon 26 genotype; assay type: in vivo, human; details: 7 T/T vs 7 C/C volunteers, T/T higher, p=0.006
Description: For a further validation of the correlation of MDR-1 genotype with intestinal digoxin uptake, additional volunteers of another clinical study at the University Medical Center, Charite in Berlin that addresses blood levels of digoxin after oral application (without rifampin induction and PGP protein determination, Johne et al. (1999), Clin.
In this study, maximum plasma concentrations (Cmax) were evaluated during steady state conditions of digoxin.

MDR-1 [4] = molecular target: T1, MDR-1 (Homo sapiens, UniProt P08183); test: clinical; design: from tissue; host or cells: colon (intestine) of human probands, in vivo; details: in vivo, po, 1 mg, digoxin concentration in blood (Dig AUC)
T1 sequence (P08183 whole entry): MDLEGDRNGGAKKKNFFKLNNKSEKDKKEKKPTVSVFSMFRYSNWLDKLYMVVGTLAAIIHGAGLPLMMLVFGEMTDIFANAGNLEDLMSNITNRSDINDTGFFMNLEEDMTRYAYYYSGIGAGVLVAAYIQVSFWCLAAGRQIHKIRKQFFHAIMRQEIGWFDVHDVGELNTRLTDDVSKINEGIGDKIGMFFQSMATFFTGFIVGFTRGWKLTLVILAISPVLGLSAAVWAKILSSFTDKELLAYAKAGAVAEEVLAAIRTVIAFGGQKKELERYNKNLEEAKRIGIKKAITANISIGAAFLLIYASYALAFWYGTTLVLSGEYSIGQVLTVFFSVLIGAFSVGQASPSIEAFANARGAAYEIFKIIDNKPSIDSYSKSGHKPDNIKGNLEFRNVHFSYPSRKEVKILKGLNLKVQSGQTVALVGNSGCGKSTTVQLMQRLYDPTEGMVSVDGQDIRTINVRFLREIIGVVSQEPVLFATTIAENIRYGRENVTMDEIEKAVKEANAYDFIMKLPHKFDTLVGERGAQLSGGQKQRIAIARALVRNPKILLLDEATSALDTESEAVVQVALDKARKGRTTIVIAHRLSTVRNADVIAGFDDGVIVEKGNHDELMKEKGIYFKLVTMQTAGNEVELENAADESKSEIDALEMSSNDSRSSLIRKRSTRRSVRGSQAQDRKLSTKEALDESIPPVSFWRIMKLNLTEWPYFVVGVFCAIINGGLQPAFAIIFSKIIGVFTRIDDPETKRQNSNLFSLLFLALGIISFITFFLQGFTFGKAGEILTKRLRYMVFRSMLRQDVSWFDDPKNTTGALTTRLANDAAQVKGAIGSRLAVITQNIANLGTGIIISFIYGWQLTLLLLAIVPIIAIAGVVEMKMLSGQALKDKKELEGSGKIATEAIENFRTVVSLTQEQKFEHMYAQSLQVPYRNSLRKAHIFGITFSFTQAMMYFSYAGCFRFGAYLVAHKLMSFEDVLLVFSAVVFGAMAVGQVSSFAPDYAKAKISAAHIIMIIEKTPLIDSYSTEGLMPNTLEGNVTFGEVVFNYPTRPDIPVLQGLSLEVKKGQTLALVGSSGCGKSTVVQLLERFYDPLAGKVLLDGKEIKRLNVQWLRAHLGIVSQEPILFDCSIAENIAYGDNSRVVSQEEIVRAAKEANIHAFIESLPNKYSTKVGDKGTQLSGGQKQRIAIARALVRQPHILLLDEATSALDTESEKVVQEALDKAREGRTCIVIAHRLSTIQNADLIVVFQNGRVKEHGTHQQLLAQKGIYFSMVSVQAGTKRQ
Text: To identify potential direct correlations of MDR-1 polymorphisms with clinical relevant phenotypes in humans, probands from a study at the Dr. Margarete Fischer-Bosch-Institut for Clinical Pharmacology in Stuttgart, were subjected to the determination of MDR-1 polymorphisms as described in examples 2-4. The expression levels of MDR-1 in the colon and liver of these patients was also estimated by established immunohistochemical detection of the MDR-1 protein. In the proband population, in addition to measurements of the expression levels of MDR-1 in the colon, measurements of MDR-1 upon induction of the gene by rifampicine were performed. Also, the in vivo activity of MDR-1 under noninduced and rifampicine induced conditions was determined by measuring the blood concentrations of orally administered digoxin (1 mg), which is a known MDR-1 substrate and whose blood concentration also depends on the MDR-1 activity in the colon. The results of the MDR-1 measurements, rifampicine induction experiments and digoxin-experiments, as well as results from the MDR-1 polymorphism detection analysis in the proband population show correlations between MDR-1 gene expression and MDR-1 in vivo activity with certain polymorphisms. […]

MDR-1 [5] = molecular target: T1, MDR-1; test: clinical; design: The expression levels of MDR-1 in the colon and liver of these patients was also estimated by established immunohistochemical detection; from tissue; host or cells: colon (intestine) of human probands, in vivo; details: in vivo
Text: To identify potential direct correlations of MDR-1 polymorphisms with clinical relevant phenotypes in humans, probands from a study at the Dr. Margarete Fischer-Bosch-Institut for Clinical Pharmacology in Stuttgart, were subjected to the determination of MDR-1 polymorphisms as described in examples 2-4. The expression levels of MDR-1 in the colon and liver of these patients was also estimated by established immunohistochemical detection of the MDR-1 protein. In the proband population, in addition to measurements of the expression levels of MDR-1 in the colon, measurements of MDR-1 upon induction of the gene by rifampicine were performed. Also, the in vivo activity of MDR-1 under noninduced and rifampicine induced conditions was determined by measuring the blood concentrations of orally administered digoxin (1 mg), which is a known MDR-1 substrate and whose blood concentration also depends on the MDR-1 activity in the colon. The results of the MDR-1 measurements, rifampicine induction experiments and digoxin-experiments, as well as results from the MDR-1 polymorphism detection analysis in the proband population show correlations between MDR-1 gene expression and MDR-1 in vivo activity with certain polymorphisms.
This was done by measuring the blood concentrations of orally administered digoxin which is a known MDR-1 substrate and whose blood concentration also depends on the MDR-1 activity in the colon. […] The probands that harbor the T allele (correlates with weaker MDR-1 expression, see Tab. 4), contain higher blood levels of digoxin compared to samples which have only the corresponding homozygous C-allele. […] This is totally consistent with the function of MDR-1 in the colon, i.e. re-transport and elimination of substrates from the uptaking cells into the lumen of the colon. […] The difference of the digoxin blood levels between these individuals was more than 4-fold.

Compound: CO[C@H]1/C=C/O[C@@]2(C)Oc3c(C)c(O)c4c(O)c(c(/C=N/N5CCN(C)CC5)c(O)c4c3C2=O)NC(=O)/C(C)=C\C=C\[C@H](C)[C@H](O)[C@@H](C)[C@@H](O)[C@@H](C)[C@H](OC(C)=O)[C@@H]1C [rifampicine]
- highest rif-induced activity (PGP concentration) (MDR-1 [1]; proband homozygous C/C at position 176): 1264.9
- lowest rif-induced activity (PGP concentration) (MDR-1 [1]; proband homozygous T/T at position 176): 142.1
- difference of induced MDR-1 expression levels between homozygous C and homozygous T proband (MDR-1 [1]; rifampicin-induced, highest (C/C) vs lowest (T/T) proband): 9 fold
- PGP concentration, mean (MDR-1 [1]; T-allele absent (C/C only)): 924 relative units
- PGP concentration, mean (MDR-1 [1]; T-allele present (T/T and T/C)): 587 relative units
- PGP concentration (MDR-1 [1]; T-allele absent (C/C only)): 423 relative units and 1264 relative units and 1086 relative units
- PGP concentration (MDR-1 [1]; T-allele present (T/T and T/C) at position 176 in exon 26): 142 relative units and 1085 relative units and 520 relative units and 601 relative units

- highest blood concentration, increase compared to the normal population ([2]; 2C9 deficient patient with low PGP (T/T) genotype, within a group of 100 patients): about twofold
- Phenytoin blood levels ([2]; 2C9 normal metabolizers, MDR-1 genotype CC and CT (intestinal PGP high/medium)): normal
- Phenytoin blood levels ([2]; 2C9 normal metabolizers, MDR-1 genotype TT (intestinal PGP low)): normal
- Phenytoin blood levels ([2]; 2C9 weak and/or deficient metabolizers, MDR-1 genotype CC and CT (intestinal PGP high/medium)): high
- Phenytoin blood levels ([2]; 2C9 weak and/or deficient metabolizers, MDR-1 genotype TT (intestinal PGP low)): VERY HIGH
Compound: O=C1NC(=O)C(c2ccccc2)(c2ccccc2)N1 [Phenytoin]

- mean difference in digoxin Cmax between T/T and C/C groups [3]: 38%
- AUC (MDR-1 [4]): 63.6 ng·h/mL
- difference of the digoxin blood levels between homozygous T and homozygous C proband (MDR-1 [5]): more than 4 fold
- highest rif-induced dig blood level (MDR-1 [5]): 12.3
- lowest rif-induced dig blood level (MDR-1 [5]): 57.3
Compound: C[C@H]1O[C@@H](O[C@H]2[C@@H](O)C[C@H](O[C@H]3[C@@H](O)C[C@H](O[C@H]4CC[C@@]5(C)[C@H](CC[C@@H]6[C@@H]5C[C@@H](O)[C@]5(C)[C@@H](C7=CC(=O)OC7)CC[C@]65O)C4)O[C@@H]3C)O[C@@H]2C)C[C@H](O)[C@@H]1O [digoxin]
